PubChem BioAssay (NCI)
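Exposure lasted 48 hours, with cells grown in 96-well plates and compounds tested at five concentrations. TGI marks complete inhibition of growth.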

Tests used:
Experiment in all cases: NCI-60 cell line screen, 48 h
[1] = tested on: SR leukemia
[2] = tested on: U251 CNS
[3] = tested on: SNB-75 CNS
[4] = tested on: KM12 colon
[5] = tested on: HCT-116 colon
[6] = tested on: A498 renal
[7] = tested on: MCF7 breast
[8] = tested on: K-562 leukemia
[9] = tested on: HOP-62 NSCLC
[10] = tested on: HS 578T breast
[11] = tested on: SN12C renal
[12] = tested on: PC-3 prostate
[13] = tested on: UO-31 renal
[14] = tested on: T-47D breast
[15] = tested on: 786-0 renal
[16] = tested on: CAKI-1 renal
[17] = tested on: HL-60(TB) leukemia
[18] = tested on: NCI-H460 lung
[19] = tested on: SNB-19 CNS
[20] = tested on: RXF 393 renal
[21] = tested on: SK-OV-3 ovarian
[22] = tested on: DU-145 prostate
[23] = tested on: MOLT-4 leukemia
[24] = tested on: CCRF-CEM leukemia
[25] = tested on: MDA-MB-435
[26] = tested on: OVCAR-4 ovarian
[27] = tested on: SW-620 colon
[28] = tested on: LOX IMVI melanoma
[29] = tested on: SK-MEL-28 melanoma
[30] = tested on: OVCAR-8 ovarian
[31] = tested on: MALME-3M melanoma
[32] = tested on: A549 NSCLC
[33] = tested on: EKVX NSCLC
[34] = tested on: M14 melanoma
[35] = tested on: UACC-62 melanoma
[36] = tested on: HT29 colon
[37] = tested on: MDA-N
[38] = tested on: HCT-15 colon
[39] = tested on: SK-MEL-5 melanoma
[40] = tested on: ACHN renal
[41] = tested on: IGROV1 ovarian
[42] = tested on: NCI-H522 lung
[43] = tested on: BT-549 breast
[44] = tested on: HOP-92 NSCLC
[45] = tested on: NCI/ADR-RES ovarian
[46] = tested on: HCC-2998 colon
[47] = tested on: UACC-257 melanoma
[48] = tested on: TK-10 renal
[49] = tested on: MDA-MB-231 breast
[50] = tested on: OVCAR-3 ovarian
[51] = tested on: NCI-H23 lung
[52] = tested on: SF-295 CNS
[53] = tested on: COLO 205 colon
[54] = tested on: OVCAR-5 ovarian
[55] = tested on: SF-268 CNS
[56] = tested on: NCI-H226 lung
[57] = tested on: SK-MEL-2 melanoma
[58] = tested on: SF-539 CNS
[59] = tested on: RPMI-8226 leukemia

Measured: TGI

COc1ccc2c(c1)/C(=C(\C(Cl)=C(Cl)Cl)[N+](=O)[O-])N2
> 100 µM: [2] | [3] | [4] | [5] | [6] | [7] | [8] | [9] | [10] | [11] | [12] | [13] | [14] | [15] | [16] | [17] | [18] | [19] | [20] | [21] | [22] | [24] | [25] | [26] | [27] | [28] | [29] | [30] | [31] | [32] | [33] | [34] | [35] | [36] | [37] | [38] | [39] | [40] | [41] | [43] | [44] | [45] | [46] | [47] | [48] | [49] | [50] | [51] | [52] | [53] | [54] | [55]
49.3 µM: [1]
85.7 µM: [56]
97.1 µM: [23]
87 µM: [42]

CC(=O)Nc1ccc2nncnc2c1
> 100 µM: [1] | [2] | [57] | [3] | [4] | [5] | [6] | [7] | [8] | [9] | [58] | [10] | [11] | [12] | [13] | [14] | [15] | [16] | [17] | [18] | [19] | [21] | [22] | [23] | [24] | [25] | [26] | [27] | [28] | [29] | [32] | [33] | [34] | [35] | [36] | [37] | [38] | [39] | [40] | [41] | [42] | [43] | [45] | [59] | [47] | [48] | [49] | [50] | [51] | [52] | [53] | [54] | [55] | [56]

Cc1csc2c(P(=O)(OC(C)C)OC(C)C)c(-c3ccccc3)cn12
29.7 µM: [39]
32 µM: [55]
37.2 µM: [24]
45.7 µM: [8]
27.4 µM: [5]
33 µM: [21] | [26] | [30]
28.5 µM: [46]
36 µM: [43]
28.2 µM: [50]
45.9 µM: [17]
31.4 µM: [23]
39.7 µM: [10]
40.7 µM: [59]
28.8 µM: [54]
36.2 µM: [45]
34.3 µM: [7]
37.7 µM: [25]
36.1 µM: [31]
29.2 µM: [36]
31.6 µM: [38]
37.8 µM: [53]
34.1 µM: [6]
31.9 µM: [41]
43.4 µM: [16]
33.7 µM: [20]
23.7 µM: [48]
32.5 µM: [57] | [33] | [37]
28.7 µM: [12]
35.8 µM: [27]
37.9 µM: [51]
29.5 µM: [2]
34.7 µM: [34]
32.4 µM: [32]
31.8 µM: [13]
30.7 µM: [15] | [42]
30.6 µM: [4]
33.5 µM: [44]
27.3 µM: [28]
36.7 µM: [1]
32.1 µM: [11]
28.3 µM: [40]
28.4 µM: [19]
30.1 µM: [18]
32.9 µM: [58] | [22] | [29]
31.1 µM: [52]
41.1 µM: [49]
33.1 µM: [9]
27.8 µM: [47]
27.7 µM: [3]
20 µM: [35]
16.2 µM: [14]

O=C(CC(=O)c1ccncc1)c1ccccc1
> 41.8 µM: [24]
> 100 µM: [1] | [2] | [57] | [3] | [4] | [5] | [6] | [7] | [8] | [9] | [58] | [10] | [12] | [13] | [14] | [15] | [16] | [18] | [19] | [20] | [21] | [22] | [23] | [25] | [26] | [27] | [28] | [29] | [30] | [32] | [33] | [34] | [35] | [36] | [37] | [38] | [39] | [40] | [41] | [42] | [43] | [44] | [59] | [46] | [47] | [48] | [49] | [50] | [51] | [52] | [53] | [54] | [55] | [56]
69.3 µM: [45]
> 89.2 µM: [31]
> 62.5 µM: [11]
